Measurements: patent US20110092367A1, “Herbicidal Compositions Comprising 4-amino-3,6-dichloropyridine-2-carboxylic Acid” (BASF SE, priority 2008, published 2011)

System: Centaurea cyanus
Assay: Field trial Example 2, combined application: CENCY
Format: in vivo
Settings: Aminopyralid 7.5 g ai/ha solo, 78 DAT
Method: Aminiopyralid was used as commercial aquaeous solution having an active ingredient concentration of 240 g/l (Milestone™). Metazachlor was used as a commercial suspension concentrate having an active ingredient concentration of 500 g/l (Butisan S®).
The evaluation for the damage on undesired weeds caused by the chemical compositions was carried out using a scale from 0 to 100%, compared to the untreated control plants. Here, 0 means no damage and 100 means complete destruction of the plants.
The value E, which is to be expected if the activity of the individual compounds is just additive, was calculated using the method of S. R. Colby (1967) “Calculating synergistic and antagonistic responses of herbicide combinations”, Weeds 15, p. 22 ff.
The performance of aminopyralid, applied as an alone treatment at […] and 15 g ai/ha, and the performance of metazachlor, applied as an alone treatment at 375 and 500 g ai/ha, as well as the mixtures of the both compounds have been assessed in winter oilseed rape field trials. The trials have been conducted in Germany at two locations.
Post emergence treatment was applied by means of fine distributed nozzels at the growth stage (GS/BBCH 11/12).

In the case of `Nc1cc(Cl)nc(C(=O)O)c1Cl` [aminopyralid, 4-amino-3,6-dichloropyridine-2-carboxylic acid], the “% activity” value is reported as 98%.
